Experimental findings from ChEMBL document CHEMBL3632590, “Development of Safe and Effective Botanical Dietary Supplements” (J Med Chem, 2015) are described below.

Each structure is given as a SMILES string.

The nature of data set [1]: Terminal half life in human at 60 mg, po by LC-MS/MS method. Type of data set: ADME, organism-based. Conditions: in vivo, read-out: beta t1/2 (converted).
The nature of data set [2]: Oral bioavailability in human. Type of data set: ADME, organism-based. The following applies: in vivo.
A short description of data set [3]: Terminal half life in orally dosed human by LC-MS/MS method. The data set is classed as ADME, organism-based. Conditions: in vivo, po, read-out: beta t1/2.
A further data set deals with Cytochrome P450 2D6 (Homo sapiens, UniProt P10635). Nature of the data set: Competitive inhibition of CYP2D6 (unknown origin) using dextromethorphan substrate. Type of data set: ADME.
Cytochrome P450 2D6, sequence (P10635 whole entry): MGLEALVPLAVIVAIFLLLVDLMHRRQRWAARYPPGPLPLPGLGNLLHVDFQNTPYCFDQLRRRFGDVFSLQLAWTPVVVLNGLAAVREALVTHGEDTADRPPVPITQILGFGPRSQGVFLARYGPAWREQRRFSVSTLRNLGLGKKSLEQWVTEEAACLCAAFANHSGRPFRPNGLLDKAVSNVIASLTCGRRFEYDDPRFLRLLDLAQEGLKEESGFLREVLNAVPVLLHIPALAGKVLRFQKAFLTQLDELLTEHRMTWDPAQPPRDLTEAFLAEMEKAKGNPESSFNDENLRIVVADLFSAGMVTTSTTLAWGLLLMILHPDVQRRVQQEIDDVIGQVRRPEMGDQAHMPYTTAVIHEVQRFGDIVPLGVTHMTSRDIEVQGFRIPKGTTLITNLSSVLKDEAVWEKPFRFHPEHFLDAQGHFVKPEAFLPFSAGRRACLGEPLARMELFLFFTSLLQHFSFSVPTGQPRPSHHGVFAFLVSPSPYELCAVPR

Consider `CC(C)=CCc1c(O)cc(O)c2c1OC(c1ccc(O)cc1)CC2=O` (configuration not stated) [SOPHORAFLAVANONE B], for which the half-life in data set [1] was 20 h.

For the molecule `COc1cc([C@H]2Oc3cc([C@H]4Oc5cc(O)cc(O)c5C(=O)[C@@H]4O)ccc3O[C@@H]2CO)ccc1O` [SILYBIN A], the bioavailability (as a rule, dose-corrected exposure relative to a reference, in per cent) in data set [2] was < 0.5%. Also, the half-life in data set [3] is < 2 h.

As for `COc1cc(O)c(CC=C(C)C)c(O)c1C(=O)/C=C/c1ccc(O)cc1` [XANTHOHUMOL], in data set [1], the half-life is 20 h.

Take `COc1cc([C@@H]2Oc3cc([C@H]4Oc5cc(O)cc(O)c5C(=O)[C@@H]4O)ccc3O[C@H]2CO)ccc1O` [SILYBIN B]: in data set [2], the bioavailability was < 0.5%. Also, in data set [3], the half-life was < 2 h.

With `COc1ccc2c(c1OC)CN(C)CCc1cc3c(cc1C(=O)C2)OCO3` [ALLOCRYPTOPINE], affinity on Cytochrome P450 2D6 was put at a Ki of 122 nM.
